Measurements from ChEMBL document CHEMBL5653598, “In vivo antitumor activity of NVP-AEW541-A novel, potent, and selective inhibitor of the IGF-IR kinase” (Cancer Cell, 2004).
pIC50: −log10 of the molar value. Active and inactive are the calls of the source. The rule behind the calls is not given here.

Assays:
[1] = molecular target: T1, Insulin receptor (Homo sapiens, UniProt P06213); assay: Inhibition of GST tagged human Ins-R expressed in baculovirus at pH 7.6 measured after 20 mins in presence of gamma-[33P]-ATP by scintillation counter analysis
[2] = molecular target: T2, Epidermal growth factor receptor (Homo sapiens, UniProt P00533); assay: Inhibition of GST tagged human HER-1 expressed in baculovirus at pH 7.5 measured after 15 mins in presence of gamma-[33P]-ATP by scintillation counter analysis
[3] = molecular target: Receptor tyrosine-protein kinase erbB-2 (Homo sapiens, UniProt P04626); assay: Inhibition of GST tagged human HER-2 expressed in baculovirus at pH 7.5 measured after 15 mins in presence of gamma-[33P]-ATP by scintillation counter analysis
[4] = molecular target: Receptor tyrosine-protein kinase erbB-4 (Homo sapiens, UniProt Q15303); assay: Inhibition of GST tagged human HER-4 expressed in baculovirus at pH 7.5 measured after 15 mins in presence of gamma-[33P]-ATP by scintillation counter analysis
[5] = molecular target: Vascular endothelial growth factor receptor 2 (Homo sapiens, UniProt P35968); assay: Inhibition of GST tagged KDR (unknown origin) expressed in baculovirus at pH 7.6 measured after 10 to 30 mins in presence of gamma-[33P]-ATP by scintillation counter analysis
[6] = molecular target: Angiopoietin-1 receptor (Homo sapiens, UniProt Q02763); assay: Inhibition of GST tagged Tek (unknown origin) expressed in baculovirus at pH 7.6 measured after 10 to 30 mins in presence of gamma-[33P]-ATP by scintillation counter analysis
[7] = molecular target: Platelet-derived growth factor receptor beta (Homo sapiens, UniProt P09619); assay: Inhibition of GST tagged PDGFR-beta (unknown origin) expressed in baculovirus at pH 7.6 measured after 10 to 30 mins in presence of gamma-[33P]-ATP by scintillation counter analysis
[8] = molecular target: Hepatocyte growth factor receptor (Homo sapiens, UniProt P08581); assay: Inhibition of GST tagged c-Met (unknown origin) expressed in baculovirus at pH 7.6 measured after 10 to 30 mins in presence of gamma-[33P]-ATP by scintillation counter analysis
[9] = molecular target: Tyrosine-protein kinase ABL1 (Homo sapiens, UniProt P00519); assay: Inhibition of GST tagged c-Abl (unknown origin) expressed in baculovirus infected Sf9 cells at pH 7.5 measured after 10 mins in presence of gamma-[33P]-ATP by scintillation counter analysis
[10] = molecular target: Proto-oncogene tyrosine-protein kinase Src (Gallus gallus, UniProt P00523); assay: Inhibition of GST tagged chicken c-Src expressed in baculovirus at pH 7.5 measured after 10 mins in presence of gamma-[33P]-ATP by scintillation counter analysis
[11] = molecular target: T3, Mast/stem cell growth factor receptor Kit (Homo sapiens, UniProt P10721); assay: Inhibition of GST tagged c-Kit (unknown origin) expressed in baculovirus at pH 7.6 measured after 10 to 30 mins in presence of gamma-[33P]-ATP by scintillation counter analysis
[12] = molecular target: Vascular endothelial growth factor receptor 3 (Homo sapiens, UniProt P35916); assay: Inhibition of GST tagged human Flt-4 expressed in baculovirus at pH 7.6 measured after 15 mins in presence of gamma-[33P]-ATP by scintillation counter analysis
[13] = molecular target: Vascular endothelial growth factor receptor 1 (Homo sapiens, UniProt P17948); assay: Inhibition of GST tagged Flt-1 (unknown origin) expressed in baculovirus at pH 7.6 measured after 10 to 30 mins in presence of gamma-[33P]-ATP by scintillation counter analysis
[14] = molecular target: T4, Receptor-type tyrosine-protein kinase FLT3 (Homo sapiens, UniProt P36888); assay: Inhibition of GST tagged human Flt-3 expressed in baculovirus at pH 7.6 measured after 15 mins in presence of gamma-[33P]-ATP by scintillation counter analysis
T4 sequence (P36888 whole entry): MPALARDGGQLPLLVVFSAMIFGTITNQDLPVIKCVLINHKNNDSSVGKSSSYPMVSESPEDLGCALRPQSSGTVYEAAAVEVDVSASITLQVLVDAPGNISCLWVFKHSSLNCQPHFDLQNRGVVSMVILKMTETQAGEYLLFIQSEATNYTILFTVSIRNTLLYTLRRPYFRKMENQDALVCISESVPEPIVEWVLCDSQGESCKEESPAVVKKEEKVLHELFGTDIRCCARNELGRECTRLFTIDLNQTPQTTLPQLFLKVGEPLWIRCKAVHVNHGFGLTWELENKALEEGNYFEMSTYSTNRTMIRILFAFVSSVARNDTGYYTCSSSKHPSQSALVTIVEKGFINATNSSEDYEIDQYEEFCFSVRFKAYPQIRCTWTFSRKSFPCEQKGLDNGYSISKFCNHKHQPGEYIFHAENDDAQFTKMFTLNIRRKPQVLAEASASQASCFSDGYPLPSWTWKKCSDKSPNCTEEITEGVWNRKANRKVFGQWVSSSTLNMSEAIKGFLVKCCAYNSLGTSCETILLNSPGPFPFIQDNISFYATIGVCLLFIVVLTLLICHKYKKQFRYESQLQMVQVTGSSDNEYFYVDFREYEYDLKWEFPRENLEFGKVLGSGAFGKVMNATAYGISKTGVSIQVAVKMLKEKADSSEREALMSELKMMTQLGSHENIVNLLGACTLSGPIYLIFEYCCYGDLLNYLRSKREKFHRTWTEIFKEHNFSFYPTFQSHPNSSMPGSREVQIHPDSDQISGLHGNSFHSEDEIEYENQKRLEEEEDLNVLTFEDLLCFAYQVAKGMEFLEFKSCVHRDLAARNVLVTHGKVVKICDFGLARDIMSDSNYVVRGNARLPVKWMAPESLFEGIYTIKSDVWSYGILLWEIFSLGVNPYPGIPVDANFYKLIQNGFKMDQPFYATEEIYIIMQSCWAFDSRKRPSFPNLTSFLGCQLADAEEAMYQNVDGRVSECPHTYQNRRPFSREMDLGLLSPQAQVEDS

[15] = molecular target: Fibroblast growth factor receptor 1 (Homo sapiens, UniProt P11362); assay: Inhibition of GST tagged FGFR-1 (unknown origin) expressed in baculovirus at pH 7.6 measured after 10 to 30 mins in presence of gamma-[33P]-ATP by scintillation counter analysis
[16] = molecular target: RAC-alpha serine/threonine-protein kinase (Homo sapiens, UniProt P31749); assay: Inhibition of human PKB expressed in baculovirus at pH 7.2 measured after 30 mins in presence of gamma-[33P]-ATP by scintillation counter analysis
[17] = Inhibition of starfish Cdk1/cycB expressed in baculovirus at pH 8.0 measured after 30 mins in presence of gamma-[33P]-ATP by scintillation counter analysis; parameters: species or system Asteroidea
[18] = molecular target: RAF proto-oncogene serine/threonine-protein kinase (Homo sapiens, UniProt P04049); assay: Inhibition of GST-tagged c-Raf-1 (unknown origin) expressed in baculovirus infected in Sf21 cells at pH 7.5 measured after 30 mins in presence of gamma-[33P]-ATP by scintillation counter analysis
[19] = Inhibition of rabbit PKA expressed in baculovirus at pH 7.0 measured after 20 mins in presence of gamma-[33P]-ATP by scintillation counter analysis; parameters: species or system Oryctolagus cuniculus
[20] = molecular target: T1, Insulin receptor; assay: Inhibition of Ins-R in A14 [Human melanoma] cells assessed as inhibition of autophosphorylation of Ins-R incubated for 90 mins followed by insulin stimulation measured after 10 mins by ELISA analysis; assay type: cell-based
[21] = molecular target: T2, Epidermal growth factor receptor; assay: Inhibition of HER-1 in human A-431 cells assessed as inhibition of autophosphorylation of HER-1 incubated for 90 mins followed by EGF stimulation measured after 10 mins in presence of anti-EGFR Ab5 by ELISA analysis; assay type: cell-based
[22] = Inhibition of PDGFR (unknown origin) in mouse BALB/3T3 clone A31 cells assessed as inhibition of autophosphorylation of PDGFR incubated for 90 mins followed by PDGF BB stimulation measured after 10 mins in presence of anti-PDGF-R Receptor Type A/B antibody by ELISA analysis; assay type: cell-based; conditions: Homo sapiens
[23] = molecular target: T3, Mast/stem cell growth factor receptor Kit; assay: Inhibition of c-Kit (unknown origin) in human GIST882 cells assessed as inhibition of autophosphorylation of c-Kit incubated for 90 mins in presence of anti-CD117 antibody by ELISA analysis; assay type: cell-based
[24] = test system: NWT-21; assay: Antitumor activity against mouse NWT-21 cells xenografted in Hsd athymic nude mouse assessed as inhibition of tumor growth at 20 mg/kg, po bid administered for 7 weeks relative to control; assay type: functional; conditions: NWT-21, po, 1176 h
[25] = test system: NWT-21; assay: Antitumor activity against mouse NWT-21 cells xenografted in Hsd athymic nude mouse assessed as inhibition of tumor growth at 30 mg/kg, po bid administered for 7 weeks relative to control; assay type: functional; conditions: NWT-21, 1176 h, read-out: GI
[26] = test system: NWT-21; assay: Antitumor activity against mouse NWT-21 cells xenografted in Hsd athymic nude mouse assessed as inhibition of tumor growth at 50 mg/kg, po bid administered for 7 weeks relative to control; assay type: functional; conditions: NWT-21, 1176 h
[27] = Toxicity in Hsd athymic nude mouse xenografted with NWT-21 cells assessed as body weight at 20 to 50 mg/kg, po bid administered for 7 weeks; assay type: organism-based; conditions: in vivo, 1176 h, dose 20-50 mg/kg
[28] = test system: NWT-21; assay: Antitumor activity against mouse NWT-21 cells xenografted in Hsd athymic nude mouse assessed as plasma glucose level at 50 mg/kg, po bid measured after 1 day; assay type: functional
[29] = test system: NWT-21; assay: Antitumor activity against mouse NWT-21 cells xenografted in Hsd athymic nude mouse assessed as plasma glucose level at 50 mg/kg, po bid measured after 10 days; assay type: functional; conditions: time 10 day
[30] = test system: NWT-21; assay: Antitumor activity against mouse NWT-21 cells xenografted in Hsd athymic nude mouse assessed as plasma insulin level at 50 mg/kg, po bid measured after 1 day; assay type: functional
[31] = test system: NWT-21; assay: Antitumor activity against mouse NWT-21 cells xenografted in Hsd athymic nude mouse assessed as plasma insulin level at 50 mg/kg, po bid measured after 10 day; assay type: functional
[32] = organism: Mus musculus; conditions: Harlan, dose 50.0 mg/kg, route po, time 1.0 hrs
[33] = organism: Mus musculus; conditions: Harlan, dose 50.0 mg/kg, route po, time 1.0 hrs; remark: listed apart in the source
[34] = organism: Mus musculus; conditions: Harlan, dose 50.0 mg/kg, route po, time 1.0 hrs; remark: listed apart in the source
[35] = test system: NWT-21; conditions: Mus musculus, dose 50.0 mg/kg, route po, time 1.0 hrs
[36] = test system: NWT-21; conditions: Mus musculus, dose 50.0 mg/kg, route po, time 1.0 hrs; remark: listed apart in the source
[37] = test system: NWT-21; conditions: Mus musculus, dose 50.0 mg/kg, route po, time 1.0 hrs; remark: listed apart in the source
[38] = test system: NWT-21; conditions: Mus musculus, dose 50.0 mg/kg, route po, time 1.0 hrs; remark: listed apart in the source

T2 sequence (P00533 whole entry): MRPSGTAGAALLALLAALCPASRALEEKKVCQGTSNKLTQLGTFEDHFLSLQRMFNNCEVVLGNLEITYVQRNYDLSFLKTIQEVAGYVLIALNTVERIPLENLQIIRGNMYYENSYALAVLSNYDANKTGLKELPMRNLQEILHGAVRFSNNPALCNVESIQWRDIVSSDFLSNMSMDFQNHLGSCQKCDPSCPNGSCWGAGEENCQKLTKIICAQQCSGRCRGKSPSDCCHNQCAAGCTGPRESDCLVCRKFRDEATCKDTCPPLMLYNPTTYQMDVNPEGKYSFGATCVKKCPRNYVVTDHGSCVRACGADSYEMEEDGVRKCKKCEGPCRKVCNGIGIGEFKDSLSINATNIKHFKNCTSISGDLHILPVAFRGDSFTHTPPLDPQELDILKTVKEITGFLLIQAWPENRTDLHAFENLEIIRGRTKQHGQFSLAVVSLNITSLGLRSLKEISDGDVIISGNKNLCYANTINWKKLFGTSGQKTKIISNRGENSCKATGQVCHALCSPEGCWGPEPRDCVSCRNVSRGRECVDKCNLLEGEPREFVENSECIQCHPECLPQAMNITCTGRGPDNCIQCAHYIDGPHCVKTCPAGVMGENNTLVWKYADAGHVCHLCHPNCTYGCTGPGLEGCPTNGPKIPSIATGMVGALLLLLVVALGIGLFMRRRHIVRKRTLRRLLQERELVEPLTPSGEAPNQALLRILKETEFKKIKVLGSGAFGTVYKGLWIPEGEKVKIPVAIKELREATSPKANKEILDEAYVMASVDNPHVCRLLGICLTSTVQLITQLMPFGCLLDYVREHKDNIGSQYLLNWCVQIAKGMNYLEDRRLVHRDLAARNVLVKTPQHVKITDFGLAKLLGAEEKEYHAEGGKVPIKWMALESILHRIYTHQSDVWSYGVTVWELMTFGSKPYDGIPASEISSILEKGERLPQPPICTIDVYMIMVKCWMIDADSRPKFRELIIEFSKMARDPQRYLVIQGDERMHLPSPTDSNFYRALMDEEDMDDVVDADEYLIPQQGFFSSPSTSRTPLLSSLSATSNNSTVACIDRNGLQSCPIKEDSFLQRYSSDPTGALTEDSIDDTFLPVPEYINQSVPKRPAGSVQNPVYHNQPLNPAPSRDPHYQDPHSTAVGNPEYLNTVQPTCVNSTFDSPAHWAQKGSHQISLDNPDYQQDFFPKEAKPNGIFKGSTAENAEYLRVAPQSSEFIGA
T1 sequence (P06213 28-758 limits assumed): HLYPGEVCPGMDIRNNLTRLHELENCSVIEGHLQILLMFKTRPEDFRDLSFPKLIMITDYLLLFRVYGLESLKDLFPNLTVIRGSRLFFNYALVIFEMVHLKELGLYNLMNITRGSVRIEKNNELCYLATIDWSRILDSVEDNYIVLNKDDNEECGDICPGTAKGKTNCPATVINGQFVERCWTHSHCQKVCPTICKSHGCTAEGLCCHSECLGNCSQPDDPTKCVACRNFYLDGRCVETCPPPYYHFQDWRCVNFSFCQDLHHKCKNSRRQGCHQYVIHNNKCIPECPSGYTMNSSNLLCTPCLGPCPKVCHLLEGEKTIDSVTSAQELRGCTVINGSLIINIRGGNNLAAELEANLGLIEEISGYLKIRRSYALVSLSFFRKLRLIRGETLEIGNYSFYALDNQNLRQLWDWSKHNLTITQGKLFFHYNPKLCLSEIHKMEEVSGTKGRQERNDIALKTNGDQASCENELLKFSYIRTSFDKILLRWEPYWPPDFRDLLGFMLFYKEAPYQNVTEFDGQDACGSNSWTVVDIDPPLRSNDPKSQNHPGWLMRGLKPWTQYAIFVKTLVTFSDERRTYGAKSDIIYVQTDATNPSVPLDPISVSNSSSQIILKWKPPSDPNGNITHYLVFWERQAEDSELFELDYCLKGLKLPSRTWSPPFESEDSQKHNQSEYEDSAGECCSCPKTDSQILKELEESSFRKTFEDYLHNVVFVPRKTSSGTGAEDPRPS
T1 sequence (P06213 763-1382 limits assumed): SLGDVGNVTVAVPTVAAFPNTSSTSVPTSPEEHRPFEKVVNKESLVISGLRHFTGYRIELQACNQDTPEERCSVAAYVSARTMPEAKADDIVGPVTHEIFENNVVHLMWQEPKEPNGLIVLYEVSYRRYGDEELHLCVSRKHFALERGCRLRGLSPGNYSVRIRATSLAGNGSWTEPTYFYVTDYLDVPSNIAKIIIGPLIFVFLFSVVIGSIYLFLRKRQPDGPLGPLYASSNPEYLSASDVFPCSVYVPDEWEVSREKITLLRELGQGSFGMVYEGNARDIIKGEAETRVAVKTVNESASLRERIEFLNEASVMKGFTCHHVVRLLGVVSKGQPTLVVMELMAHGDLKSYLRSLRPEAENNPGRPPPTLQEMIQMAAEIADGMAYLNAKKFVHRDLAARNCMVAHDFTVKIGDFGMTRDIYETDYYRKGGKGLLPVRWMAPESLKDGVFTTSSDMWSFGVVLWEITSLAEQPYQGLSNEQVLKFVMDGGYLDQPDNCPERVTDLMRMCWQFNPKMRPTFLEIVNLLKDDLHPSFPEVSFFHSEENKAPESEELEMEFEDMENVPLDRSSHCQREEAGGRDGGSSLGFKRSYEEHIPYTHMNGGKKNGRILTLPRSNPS
T3 sequence (P10721 whole entry): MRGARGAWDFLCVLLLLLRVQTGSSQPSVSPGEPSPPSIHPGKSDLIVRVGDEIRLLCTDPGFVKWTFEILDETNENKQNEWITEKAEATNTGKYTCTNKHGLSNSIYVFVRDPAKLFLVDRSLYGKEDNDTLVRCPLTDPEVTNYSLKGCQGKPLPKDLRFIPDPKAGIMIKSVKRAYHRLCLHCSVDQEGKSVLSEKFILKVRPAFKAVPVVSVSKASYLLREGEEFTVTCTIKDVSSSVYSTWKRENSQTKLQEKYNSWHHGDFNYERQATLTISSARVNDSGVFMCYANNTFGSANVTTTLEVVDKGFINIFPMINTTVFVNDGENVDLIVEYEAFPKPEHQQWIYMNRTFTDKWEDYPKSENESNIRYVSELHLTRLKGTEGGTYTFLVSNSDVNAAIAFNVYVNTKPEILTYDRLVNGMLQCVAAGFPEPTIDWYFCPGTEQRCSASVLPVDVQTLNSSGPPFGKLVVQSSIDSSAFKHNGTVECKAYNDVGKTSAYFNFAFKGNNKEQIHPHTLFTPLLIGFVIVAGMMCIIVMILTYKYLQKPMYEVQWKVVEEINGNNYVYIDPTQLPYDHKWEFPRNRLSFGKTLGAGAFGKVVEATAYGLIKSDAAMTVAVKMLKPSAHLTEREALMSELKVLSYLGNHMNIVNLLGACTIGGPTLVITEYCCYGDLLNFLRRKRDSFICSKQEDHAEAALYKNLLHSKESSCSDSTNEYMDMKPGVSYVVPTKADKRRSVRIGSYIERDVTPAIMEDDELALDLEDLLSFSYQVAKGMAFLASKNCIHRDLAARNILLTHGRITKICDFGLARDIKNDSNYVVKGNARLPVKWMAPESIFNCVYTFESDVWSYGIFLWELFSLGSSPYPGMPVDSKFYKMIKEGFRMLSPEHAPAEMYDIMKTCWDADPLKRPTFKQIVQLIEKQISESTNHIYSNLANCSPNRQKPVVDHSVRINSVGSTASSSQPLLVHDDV
Vascular endothelial growth factor receptor 2, sequence (P35968 whole entry): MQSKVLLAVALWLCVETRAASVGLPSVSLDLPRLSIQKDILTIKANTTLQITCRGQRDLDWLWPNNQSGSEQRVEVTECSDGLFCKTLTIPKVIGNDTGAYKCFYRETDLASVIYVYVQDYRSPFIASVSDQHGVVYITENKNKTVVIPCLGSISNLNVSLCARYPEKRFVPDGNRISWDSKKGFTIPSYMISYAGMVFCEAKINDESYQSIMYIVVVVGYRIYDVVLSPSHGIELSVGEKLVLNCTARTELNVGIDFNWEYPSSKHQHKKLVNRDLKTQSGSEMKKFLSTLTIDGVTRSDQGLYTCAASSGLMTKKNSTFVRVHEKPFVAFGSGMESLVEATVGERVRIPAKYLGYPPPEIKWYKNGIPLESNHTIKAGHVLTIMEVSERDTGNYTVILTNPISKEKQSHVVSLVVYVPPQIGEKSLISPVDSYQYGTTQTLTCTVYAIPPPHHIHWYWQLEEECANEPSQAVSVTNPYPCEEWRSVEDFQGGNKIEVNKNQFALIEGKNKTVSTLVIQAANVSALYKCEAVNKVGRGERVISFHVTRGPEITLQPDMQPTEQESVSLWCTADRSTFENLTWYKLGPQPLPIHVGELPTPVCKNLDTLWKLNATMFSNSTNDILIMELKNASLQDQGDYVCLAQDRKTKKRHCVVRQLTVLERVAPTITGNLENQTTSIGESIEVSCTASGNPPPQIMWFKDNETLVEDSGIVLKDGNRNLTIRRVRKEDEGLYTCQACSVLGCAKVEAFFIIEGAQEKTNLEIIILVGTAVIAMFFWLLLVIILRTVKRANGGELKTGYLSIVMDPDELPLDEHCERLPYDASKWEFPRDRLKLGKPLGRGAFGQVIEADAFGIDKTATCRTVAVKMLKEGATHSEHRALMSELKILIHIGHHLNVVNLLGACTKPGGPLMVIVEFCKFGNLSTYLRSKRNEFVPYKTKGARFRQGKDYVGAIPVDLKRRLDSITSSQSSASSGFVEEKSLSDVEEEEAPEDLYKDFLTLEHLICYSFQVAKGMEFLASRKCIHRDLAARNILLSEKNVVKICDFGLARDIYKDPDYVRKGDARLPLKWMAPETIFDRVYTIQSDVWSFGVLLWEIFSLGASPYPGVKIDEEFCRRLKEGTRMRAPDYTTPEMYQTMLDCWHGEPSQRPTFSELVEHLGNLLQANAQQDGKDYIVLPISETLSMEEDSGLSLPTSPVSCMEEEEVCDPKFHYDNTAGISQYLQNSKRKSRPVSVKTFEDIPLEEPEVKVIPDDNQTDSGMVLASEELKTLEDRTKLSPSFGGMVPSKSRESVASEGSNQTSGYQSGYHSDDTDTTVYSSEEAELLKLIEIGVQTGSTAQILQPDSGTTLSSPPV

SMILES: Nc1ncnc2c1c(-c1cccc(OCc3ccccc3)c1)cn2[C@H]1C[C@@H](CN2CCC2)C1
- pIC50 [1]: 6.85
- pIC50 [2]: 5.24
- pIC50 [3]: 5.39
- pIC50 [4]: 5.85
- pIC50 [5]: 5.64
- pIC50 [6]: 6.28
- pIC50 [7]: 5.70
- pIC50 [8]: 5.42
- pIC50 [9]: < 5.00
- pIC50 [10]: 5.62
- pIC50 [11]: 5.48
- pIC50 [12]: 5.62
- pIC50 [13]: 6.22
- pIC50 [14]: 6.38
- pIC50 [15]: 5.39
- pIC50 [16]: < 5.00
- pIC50 [17]: < 5.00
- pIC50 [18]: < 5.00
- pIC50 [19]: < 5.00
- pIC50 [20]: 5.64
- pIC50 [21]: < 5.00
- pIC50 [22]: < 5.00
- pIC50 [23]: < 5.30
- T/C at 20 mg/kg [24]: 32%
- inhibition in vivo at 30 mg/kg [25]: 28%
- T/C at 50 mg/kg [26]: 14%
- Activity [27]: Non-Toxic
- Activity [28]: 197.4 mg/dL
- Activity [29]: 204.4 mg/dL
- Activity [30]: 14.4 uU/ml
- Activity [31]: 28.9 uU/ml
- inhibition [32]: Active
- inhibition [33]: Active
- inhibition [34]: Active
- inhibition [35]: Active
- inhibition [36]: Active
- inhibition [37]: Active
- inhibition [38]: Active
